Source: patent US20240245682A1, “ALPHA-V-BETA-8 INTEGRIN INHIBITORS AND USES THEREOF” (Pliant Therapeutics, Inc., priority 2022, published 2024)

What was measured:
Assay in all cases: AlphaScreen proximity-based integrin binding assay with TGF-b1 LAP
Conditions in all cases: values given as ranges
human integrin αVβ1 = human integrin αVβ1 (Homo sapiens, UniProt P05556+P06756)
Procedure: (§1) The biochemical potency of the disclosed compounds was determined using the AlphaScreen® (Perkin Elmer, Waltham, MA) proximity-based assay as described previously (Ullman E F et al., Luminescent oxygen channeling immunoassay: Measurement of particle binding kinetics by chemiluminescence. Proc. Natl. Acad. Sci. USA, Vol. 91, pp. 5426-5430, June 1994, herein incorporated by reference in its entirety). To gauge the potency of inhibitors of binding to each of human integrins αVβ1, αVβ6, and αVβ8, inhibitor compounds were independently incubated with one of αVβ1, αVβ6, or αVβ8, together with TGF-b1 LAP and biotinylated anti-LAP antibody plus acceptor and donor beads, following the manufacture's recommendations. The donor beads were coated with streptavidin. […] All incubations occurred at room temperatures in 50 mM Tris-HCl, pH 7.5, 0.1% BSA supplemented with 1 mM each CaCl2 and MgCl2.
(§2) The order of reagent addition was as follows:
(§3) 1. αVβ1, αVβ6, or αVβ8 integrin, test inhibitor compound, LAP, biotinylated anti-LAP antibody and acceptor beads were all added together.
(§4) 2. After 2 hours, donor beads were added. After another 30 minute incubation, samples were then read.
(§5) Integrin binding was evaluated by exciting donor beads at 680 nm, and measuring the fluorescent signal produced, between 520-620 nm, using a Biotek Instruments (Winooski, VT, USA) SynergyNeo2 multimode plate reader. Compound potency was assessed by determining inhibitor concentrations required to reduce fluorescent light output by 50%. Data analysis for IC50 determinations was carried out by nonlinear four parameter logistic regression analysis using Dotmatics ELN Software (Core Informatics Inc., Branford, Ct). […] Comp #in the Table and Examples below refers to the compound of the corresponding Example number as described in the Synthetic Examples.

human integrin αVβ6 = human integrin αVβ6 (Homo sapiens, UniProt P06756+P18564)
Chain of human integrin αVβ6 (P06756 31-992 limits assumed): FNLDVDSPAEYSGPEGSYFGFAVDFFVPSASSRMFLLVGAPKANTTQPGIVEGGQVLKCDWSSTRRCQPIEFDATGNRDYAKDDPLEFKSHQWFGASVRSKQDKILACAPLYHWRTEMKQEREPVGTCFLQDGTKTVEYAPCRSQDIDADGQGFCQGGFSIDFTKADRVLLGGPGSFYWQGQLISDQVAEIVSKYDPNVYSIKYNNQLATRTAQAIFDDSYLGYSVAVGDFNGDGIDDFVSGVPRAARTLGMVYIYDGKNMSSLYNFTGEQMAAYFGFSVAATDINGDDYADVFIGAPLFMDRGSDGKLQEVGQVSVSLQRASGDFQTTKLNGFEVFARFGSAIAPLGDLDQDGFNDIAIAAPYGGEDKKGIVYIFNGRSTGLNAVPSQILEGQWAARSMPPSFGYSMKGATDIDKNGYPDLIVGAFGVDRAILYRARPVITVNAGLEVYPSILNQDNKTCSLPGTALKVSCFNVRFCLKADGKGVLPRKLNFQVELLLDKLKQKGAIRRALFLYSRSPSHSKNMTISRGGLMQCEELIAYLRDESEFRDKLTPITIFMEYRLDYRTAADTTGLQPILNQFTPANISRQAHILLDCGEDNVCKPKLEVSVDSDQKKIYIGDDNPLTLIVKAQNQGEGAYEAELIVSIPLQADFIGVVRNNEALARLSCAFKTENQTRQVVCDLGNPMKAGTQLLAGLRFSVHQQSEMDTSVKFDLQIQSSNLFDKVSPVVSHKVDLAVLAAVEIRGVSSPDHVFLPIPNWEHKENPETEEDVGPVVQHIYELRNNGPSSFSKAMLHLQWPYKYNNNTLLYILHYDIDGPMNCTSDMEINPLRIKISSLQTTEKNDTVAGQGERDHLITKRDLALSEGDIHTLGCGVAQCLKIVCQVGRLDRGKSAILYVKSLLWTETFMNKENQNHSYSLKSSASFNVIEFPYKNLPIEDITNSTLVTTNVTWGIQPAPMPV
Chain of human integrin αVβ6 (P18564 22-707 limits assumed): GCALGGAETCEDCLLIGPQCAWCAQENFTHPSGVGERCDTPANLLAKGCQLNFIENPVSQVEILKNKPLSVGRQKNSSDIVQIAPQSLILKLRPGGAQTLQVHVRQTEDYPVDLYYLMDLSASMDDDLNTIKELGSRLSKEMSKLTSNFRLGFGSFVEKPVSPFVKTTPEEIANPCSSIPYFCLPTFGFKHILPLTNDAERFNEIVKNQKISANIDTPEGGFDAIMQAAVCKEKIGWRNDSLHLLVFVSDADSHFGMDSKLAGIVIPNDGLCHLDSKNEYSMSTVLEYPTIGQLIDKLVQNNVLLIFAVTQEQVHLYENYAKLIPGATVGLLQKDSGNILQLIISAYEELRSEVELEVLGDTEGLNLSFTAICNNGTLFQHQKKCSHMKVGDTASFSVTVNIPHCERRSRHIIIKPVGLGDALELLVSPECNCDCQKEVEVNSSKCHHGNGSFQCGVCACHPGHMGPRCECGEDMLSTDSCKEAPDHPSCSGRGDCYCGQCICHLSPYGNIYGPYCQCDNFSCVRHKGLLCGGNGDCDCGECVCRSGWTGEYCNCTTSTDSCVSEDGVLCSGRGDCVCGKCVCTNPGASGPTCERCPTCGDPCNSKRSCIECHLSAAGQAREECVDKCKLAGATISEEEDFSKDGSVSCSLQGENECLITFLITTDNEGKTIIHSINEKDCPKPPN
Procedure: as §1, §2, §3, §4, §5

human integrin αVβ8 = human integrin αVβ8 (Homo sapiens, UniProt P06756+P26012)
Chain of human integrin αVβ8 (P06756 31-992 limits assumed): as the sequence (P06756 31-992 limits assumed) above
Chain of human integrin αVβ8 (P26012 43-684 limits assumed): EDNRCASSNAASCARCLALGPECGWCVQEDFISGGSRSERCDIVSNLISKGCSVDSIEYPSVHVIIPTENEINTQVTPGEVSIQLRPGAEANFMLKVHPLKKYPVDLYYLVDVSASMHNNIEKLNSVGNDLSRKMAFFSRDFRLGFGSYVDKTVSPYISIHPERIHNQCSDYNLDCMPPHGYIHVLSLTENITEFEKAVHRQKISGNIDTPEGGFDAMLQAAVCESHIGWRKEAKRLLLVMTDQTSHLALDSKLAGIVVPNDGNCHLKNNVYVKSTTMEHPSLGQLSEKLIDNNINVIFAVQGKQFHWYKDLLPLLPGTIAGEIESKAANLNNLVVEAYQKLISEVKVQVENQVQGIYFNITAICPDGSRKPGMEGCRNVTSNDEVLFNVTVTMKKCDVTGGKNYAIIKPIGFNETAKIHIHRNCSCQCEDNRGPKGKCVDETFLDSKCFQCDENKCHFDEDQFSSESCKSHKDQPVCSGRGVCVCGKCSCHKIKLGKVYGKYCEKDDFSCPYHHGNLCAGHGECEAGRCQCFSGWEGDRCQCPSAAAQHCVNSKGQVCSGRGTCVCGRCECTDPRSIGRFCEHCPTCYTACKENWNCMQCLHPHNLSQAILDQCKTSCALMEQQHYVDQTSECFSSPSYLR
Procedure: as §1, §2, §3, §4, §5

Chain of human integrin αVβ1 (P06756 31-992 limits assumed): as the sequence (P06756 31-992 limits assumed) above
Chain of human integrin αVβ1 (P05556 21-728 limits assumed): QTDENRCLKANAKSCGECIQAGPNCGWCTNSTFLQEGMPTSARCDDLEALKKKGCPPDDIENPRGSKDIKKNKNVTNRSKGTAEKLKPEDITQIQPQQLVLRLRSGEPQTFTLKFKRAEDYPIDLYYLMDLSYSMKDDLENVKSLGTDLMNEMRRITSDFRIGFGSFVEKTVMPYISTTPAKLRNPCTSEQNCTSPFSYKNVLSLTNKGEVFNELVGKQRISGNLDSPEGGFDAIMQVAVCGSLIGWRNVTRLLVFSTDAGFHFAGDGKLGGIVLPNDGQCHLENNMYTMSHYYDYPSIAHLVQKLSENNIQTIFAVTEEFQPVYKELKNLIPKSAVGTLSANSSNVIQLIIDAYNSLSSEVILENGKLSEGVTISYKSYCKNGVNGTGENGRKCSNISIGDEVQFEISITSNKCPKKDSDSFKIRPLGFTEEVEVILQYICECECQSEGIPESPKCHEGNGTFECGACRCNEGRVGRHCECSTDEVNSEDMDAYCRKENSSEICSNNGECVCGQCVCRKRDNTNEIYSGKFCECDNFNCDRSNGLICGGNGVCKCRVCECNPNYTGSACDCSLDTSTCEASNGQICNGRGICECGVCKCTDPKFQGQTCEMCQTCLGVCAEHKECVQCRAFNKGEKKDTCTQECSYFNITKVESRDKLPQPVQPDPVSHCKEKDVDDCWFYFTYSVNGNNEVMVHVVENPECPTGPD

Row | IC50 (human integrin αVβ1) | IC50 (human integrin αVβ6) | IC50 (human integrin αVβ8) | SMILES
1 | < 50 nM | 150 to 250 nM | < 50 nM | O=C(O)[C@H](CCOCCCCc1ccc2c(n1)NCCC2)NC(=O)C1(c2cc(F)cnc2F)CC1 [Compound 21, N-(1-(2,5-difluoropyridin-3-yl)cyclopropane-1-carbonyl)-O-(4-(5,6,7,8-tetrahydro-1,8-naphthyridin-2-yl)butyl)-L-homoserine]
2 | < 50 nM | ≥ 500 nM | 150 to 250 nM | O=C(O)[C@H](CCOCCCCc1ccc2c(n1)NCCC2)NC(=O)C1(c2cncnc2)CC1 [Compound 22, N-(1-(pyrimidin-5-yl)cyclopropane-1-carbonyl)-O-(4-(5,6,7,8-tetrahydro-1,8-naphthyridin-2-yl)butyl)-L-homoserine]
3 | < 50 nM | 250 to 500 nM | 50 to 150 nM | CC(C)(C(=O)N[C@@H](CCOCCCCc1ccc2c(n1)NCCC2)C(=O)O)c1cc(F)cnc1Cl [Compound 23, N-(2-(2-chloro-5-fluoropyridin-3-yl)-2-methylpropanoyl)-O-(4-(5,6,7,8-tetrahydro-1,8-naphthyridin-2-yl)butyl)-L-homoserine]
4 | < 50 nM | 50 to 150 nM | < 50 nM | O=C(O)[C@H](CCOCCCCc1ccc2c(n1)NCCC2)NC(=O)C1(c2c(Cl)cncc2Cl)CC1 [Compound 24, N-(1-(3,5-dichloropyridin-4-yl)cyclopropane-1-carbonyl)-O-(4-(5,6,7,8-tetrahydro-1,8-naphthyridin-2-yl)butyl)-L-homoserine]
5 | < 50 nM | ≥ 500 nM | < 50 nM | O=C(O)[C@H](CCOCCCCc1ccc2c(n1)NCCC2)NC(=O)C1(c2ncccc2C(F)(F)F)CC1 [Compound 25, O-(4-(5,6,7,8-tetrahydro-1,8-naphthyridin-2-yl)butyl)-N-(1-(3-(trifluoromethyl)pyridin-2-yl)cyclopropane-1-carbonyl)-L-homoserine]
6 | < 50 nM | 250 to 500 nM | < 50 nM | COc1ccc(Cl)c(C2(C(=O)N[C@@H](CCOCCCCc3ccc4c(n3)NCCC4)C(=O)O)CC2)n1 [Compound 26, N-(1-(3-chloro-6-methoxypyridin-2-yl)cyclopropane-1-carbonyl)-O-(4-(5,6,7,8-tetrahydro-1,8-naphthyridin-2-yl)butyl)-L-homoserine]
7 | < 50 nM | ≥ 500 nM | 150 to 250 nM | N#Cc1cncc(C2(C(=O)N[C@@H](CCOCCCCc3ccc4c(n3)NCCC4)C(=O)O)CC2)c1 [Compound 27, N-(1-(5-cyanopyridin-3-yl)cyclopropane-1-carbonyl)-O-(4-(5,6,7,8-tetrahydro-1,8-naphthyridin-2-yl)butyl)-L-homoserine]
8 | < 50 nM | ≥ 500 nM | < 50 nM | Cc1ncc(F)cc1C1(C(=O)N[C@@H](CCOCCCCc2ccc3c(n2)NCCC3)C(=O)O)CC1 [Compound 28, N-(1-(5-fluoro-2-methylpyridin-3-yl)cyclopropane-1-carbonyl)-O-(4-(5,6,7,8-tetrahydro-1,8-naphthyridin-2-yl)butyl)-L-homoserine]
9 | 50 to 150 nM | ≥ 500 nM | < 50 nM | Cc1cccnc1C1(C(=O)N[C@@H](CCOCCCCc2ccc3c(n2)NCCC3)C(=O)O)CC1 [Compound 29, N-(1-(3-methylpyridin-2-yl)cyclopropane-1-carbonyl)-O-(4-(5,6,7,8-tetrahydro-1,8-naphthyridin-2-yl)butyl)-L-homoserine]
10 | 50 to 150 nM | ≥ 500 nM | 50 to 150 nM | COc1cccnc1C1(C(=O)N[C@@H](CCOCCCCc2ccc3c(n2)NCCC3)C(=O)O)CC1 [Compound 30, N-(1-(3-methoxypyridin-2-yl)cyclopropane-1-carbonyl)-O-(4-(5,6,7,8-tetrahydro-1,8-naphthyridin-2-yl)butyl)-L-homoserine]
11 | < 50 nM | ≥ 500 nM | < 50 nM | O=C(O)[C@H](CCOCCCCc1ccc2c(n1)NCCC2)NC(=O)C1(c2ncnc3ccccc23)CC1 [Compound 31, N-(1-(quinazolin-4-yl)cyclopropane-1-carbonyl)-O-(4-(5,6,7,8-tetrahydro-1,8-naphthyridin-2-yl)butyl)-L-homoserine]
